Assay results: patent publication US20150250173A1, “PESTICIDALLY ACTIVE MIXTURES COMPRISING ANTHRANILAMIDE COMPOUNDS” (BASF SE, priority 2012, published 2015)
Where two headings read alike, the source gives them in different places.

Legend:
Type in all cases: cell-based
Settings in all cases: single compound, 7 days
Pyricularia oryzae = tested on: Pyricularia oryzae
Septoria tritici = assay: Activity against leaf blotch on wheat caused by Septoria tritici (Septtr), microtiter plate
Phytophthora infestans = tested on: Phytophthora infestans
Botrytis cinerea = assay: Activity against the grey mold Botrytis cinerea in the microtiterplate test (Botrci)

## CCS(CC)=NC(=O)c1cc(Cl)cc(C)c1NC(=O)c1cc(C(F)(F)F)nn1-c1ncccc1Cl [Compound I-11, 2-(3-chloro-2-pyridyl)-N-[2-methyl-4-chloro-6-[(diethyl-λ^4-sulfanylidene)carbamoyl]phenyl]-5-(trifluoromethyl)pyrazole-3-carboxamide]
Pyricularia oryzae; 1 ppm
  Observed efficacy: 0
Pyricularia oryzae; 4 ppm
  Observed efficacy: 3
Pyricularia oryzae; 63 ppm
  Observed efficacy: 10

## CO/C=C(/C(=O)OC)c1ccccc1COc1cccc(C(F)(F)F)n1 [Picoxystrobin]
Septoria tritici; 0.063 ppm
  Observed efficacy: 53
Pyricularia oryzae; 0.063 ppm
  Observed efficacy: 72

## CCS(CC)=NC(=O)c1cc(Cl)cc(Cl)c1NC(=O)c1cc(C(F)(F)F)nn1-c1ncccc1Cl [Compound I-16, 2-(3-chloro-2-pyridyl)-N-[2,4-dichloro-6-[(diethyl-λ^4-sulfanylidene)carbamoyl]phenyl]-5-(trifluoromethyl)pyrazole-3-carboxamide]
Septoria tritici; 4 ppm
  Observed efficacy: 16
Septoria tritici; 63 ppm
  Observed efficacy: 17
Phytophthora infestans; 16 ppm
  Observed efficacy: 23
Pyricularia oryzae; 1 ppm
  Observed efficacy: 3
Pyricularia oryzae; 4 ppm
  Observed efficacy: 4

## OC(Cc1ccccc1Cl)(Cn1nc[nH]c1=S)C1(Cl)CC1 (stereo not shown) [Prothioconazol]
Septoria tritici; 0.063 ppm
  Observed efficacy: 62

## CO/N=C(/C1=NOCCO1)c1ccccc1Oc1ncnc(Oc2ccccc2Cl)c1F [Fluoxastrobin]
Septoria tritici; 0.25 ppm
  Observed efficacy: 70

## Fc1ccc([C@]2(Cn3cncn3)O[C@H]2c2ccccc2Cl)cc1 [Epoxiconazol]
Botrytis cinerea; 0.25 ppm
  Observed efficacy: 59

## CCCN(CCOc1c(Cl)cc(Cl)cc1Cl)C(=O)n1ccnc1 [Prochloraz]
Botrytis cinerea; 0.016 ppm
  Observed efficacy: 14

## COC(=O)N(OC)c1ccccc1COc1ccn(-c2ccc(Cl)cc2)n1 [Pyraclostrobin]
Phytophthora infestans; 0.063 ppm
  Observed efficacy: 10
Pyricularia oryzae; 0.004 ppm
  Observed efficacy: 39
Pyricularia oryzae; 0.016 ppm
  Observed efficacy: 49

## Cc1cc(Cl)cc(C(=O)N=S(C(C)C)C(C)C)c1NC(=O)c1cc(C(F)(F)F)nn1-c1ncccc1Cl [Compound I-21, 2-(3-chloro-2-pyridyl)-N-[2-methyl-4-chloro-6-[(bis-2-propyl-λ^4-sulfanylidene)carbamoyl]phenyl]-5-(trifluoromethyl)pyrazole-3-carboxamide]
Septoria tritici; 4 ppm
  Observed efficacy: 12
Botrytis cinerea; 4 ppm
  Observed efficacy: 0
Botrytis cinerea; 16 ppm
  Observed efficacy: 4
Pyricularia oryzae; 1 ppm
  Observed efficacy: 0
Pyricularia oryzae; 4 ppm
  Observed efficacy: 0

## CO/C=C(/C(=O)OC)c1ccccc1Oc1cc(Oc2ccccc2C#N)ncn1 [Azoxystrobin]
Pyricularia oryzae; 0.016 ppm
  Observed efficacy: 38

## Mancozeb
Septoria tritici; 4 ppm
  Observed efficacy: 48

## CON=C(C(=O)OC)c1ccccc1CON=C(C)c1cccc(C(F)(F)F)c1 [Trifloxystrobin]
Septoria tritici; 0.016 ppm
  Observed efficacy: 62
Pyricularia oryzae; 0.016 ppm
  Observed efficacy: 29
Pyricularia oryzae; 0.063 ppm
  Observed efficacy: 29

## O=C(Nc1ccccc1-c1ccc(Cl)cc1)c1cccnc1Cl [Boscalid]
Pyricularia oryzae; 16 ppm
  Observed efficacy: 10
